As usually defined, the IC50 is the concentration that gives 50% inhibition.

The results in this text go back to patent publication US20180318287A1, “Imidazo[4,5-c]quinolin-2-one Compounds and Their Use in Treating Cancer” (ASTRAZENECA AB, priority 2015, published 2018).

For assay [1], the target named is T1, ATR kinase (Homo sapiens, UniProt Q13535).
T1 construct: endogenous in cells; host or cells: HT29 cells (ECACC #85061109)
Kind of assay: Assay b): ATR cellular potency (pChk1 Ser345 in HT29 cells after 4NQO). The assay is classed as cell-based. Conditions: HT29 cells, 4NQO, pChk1 Ser345; Table 2; read-out: Assay b) ATR Cell IC50. On the procedure: ATR is a PI 3-kinase-related kinase which phosphorylates multiple substrates on serine or threonine residues in response to DNA damage during or replication blocks. Chk1, a downstream protein kinase of ATR, plays a key role in DNA damage checkpoint control. Activation of Chk1 involves phosphorylation of Ser317 and Ser345 (the latter regarded as the preferential target for phosphorylation/activation by ATR).
The following morning compound of Formula (I) in 100% DMSO were added to assay plates by acoustic dispensing. After 1 h incubation at 37° C. and 5% CO2, 40 nl of 3 mM 4NQO in 100% DMSO was added to all wells by acoustic dispensing, except minimum control wells which were left untreated with 4NQO to generate a null response control. Plates were returned to the incubator for a further 1 h. […] Then 20 μl of 0.1% Triton X100 in PBS was added and incubated for 10 minutes at r.t., to permeabalise cells. Then the plates were washed once with 50 μl/well PBS, using a Biotek EL405 plate washer.
After 2 h incubation at r.t., the plates were washed three times with 50 μl/well PBS, using a Biotek EL405 plate washer, and plates were then sealed with black plate seals until read. Plates were read using an ArrayScan VTI instrument, using an XF53 filter with 10× objective.

Assay [2] deals with T2, ATM kinase (Homo sapiens, UniProt Q13315).
T2 construct: endogenous in cells; host or cells: HT29 cells (ECACC #85061109)
T2 sequence (Q13315 whole entry): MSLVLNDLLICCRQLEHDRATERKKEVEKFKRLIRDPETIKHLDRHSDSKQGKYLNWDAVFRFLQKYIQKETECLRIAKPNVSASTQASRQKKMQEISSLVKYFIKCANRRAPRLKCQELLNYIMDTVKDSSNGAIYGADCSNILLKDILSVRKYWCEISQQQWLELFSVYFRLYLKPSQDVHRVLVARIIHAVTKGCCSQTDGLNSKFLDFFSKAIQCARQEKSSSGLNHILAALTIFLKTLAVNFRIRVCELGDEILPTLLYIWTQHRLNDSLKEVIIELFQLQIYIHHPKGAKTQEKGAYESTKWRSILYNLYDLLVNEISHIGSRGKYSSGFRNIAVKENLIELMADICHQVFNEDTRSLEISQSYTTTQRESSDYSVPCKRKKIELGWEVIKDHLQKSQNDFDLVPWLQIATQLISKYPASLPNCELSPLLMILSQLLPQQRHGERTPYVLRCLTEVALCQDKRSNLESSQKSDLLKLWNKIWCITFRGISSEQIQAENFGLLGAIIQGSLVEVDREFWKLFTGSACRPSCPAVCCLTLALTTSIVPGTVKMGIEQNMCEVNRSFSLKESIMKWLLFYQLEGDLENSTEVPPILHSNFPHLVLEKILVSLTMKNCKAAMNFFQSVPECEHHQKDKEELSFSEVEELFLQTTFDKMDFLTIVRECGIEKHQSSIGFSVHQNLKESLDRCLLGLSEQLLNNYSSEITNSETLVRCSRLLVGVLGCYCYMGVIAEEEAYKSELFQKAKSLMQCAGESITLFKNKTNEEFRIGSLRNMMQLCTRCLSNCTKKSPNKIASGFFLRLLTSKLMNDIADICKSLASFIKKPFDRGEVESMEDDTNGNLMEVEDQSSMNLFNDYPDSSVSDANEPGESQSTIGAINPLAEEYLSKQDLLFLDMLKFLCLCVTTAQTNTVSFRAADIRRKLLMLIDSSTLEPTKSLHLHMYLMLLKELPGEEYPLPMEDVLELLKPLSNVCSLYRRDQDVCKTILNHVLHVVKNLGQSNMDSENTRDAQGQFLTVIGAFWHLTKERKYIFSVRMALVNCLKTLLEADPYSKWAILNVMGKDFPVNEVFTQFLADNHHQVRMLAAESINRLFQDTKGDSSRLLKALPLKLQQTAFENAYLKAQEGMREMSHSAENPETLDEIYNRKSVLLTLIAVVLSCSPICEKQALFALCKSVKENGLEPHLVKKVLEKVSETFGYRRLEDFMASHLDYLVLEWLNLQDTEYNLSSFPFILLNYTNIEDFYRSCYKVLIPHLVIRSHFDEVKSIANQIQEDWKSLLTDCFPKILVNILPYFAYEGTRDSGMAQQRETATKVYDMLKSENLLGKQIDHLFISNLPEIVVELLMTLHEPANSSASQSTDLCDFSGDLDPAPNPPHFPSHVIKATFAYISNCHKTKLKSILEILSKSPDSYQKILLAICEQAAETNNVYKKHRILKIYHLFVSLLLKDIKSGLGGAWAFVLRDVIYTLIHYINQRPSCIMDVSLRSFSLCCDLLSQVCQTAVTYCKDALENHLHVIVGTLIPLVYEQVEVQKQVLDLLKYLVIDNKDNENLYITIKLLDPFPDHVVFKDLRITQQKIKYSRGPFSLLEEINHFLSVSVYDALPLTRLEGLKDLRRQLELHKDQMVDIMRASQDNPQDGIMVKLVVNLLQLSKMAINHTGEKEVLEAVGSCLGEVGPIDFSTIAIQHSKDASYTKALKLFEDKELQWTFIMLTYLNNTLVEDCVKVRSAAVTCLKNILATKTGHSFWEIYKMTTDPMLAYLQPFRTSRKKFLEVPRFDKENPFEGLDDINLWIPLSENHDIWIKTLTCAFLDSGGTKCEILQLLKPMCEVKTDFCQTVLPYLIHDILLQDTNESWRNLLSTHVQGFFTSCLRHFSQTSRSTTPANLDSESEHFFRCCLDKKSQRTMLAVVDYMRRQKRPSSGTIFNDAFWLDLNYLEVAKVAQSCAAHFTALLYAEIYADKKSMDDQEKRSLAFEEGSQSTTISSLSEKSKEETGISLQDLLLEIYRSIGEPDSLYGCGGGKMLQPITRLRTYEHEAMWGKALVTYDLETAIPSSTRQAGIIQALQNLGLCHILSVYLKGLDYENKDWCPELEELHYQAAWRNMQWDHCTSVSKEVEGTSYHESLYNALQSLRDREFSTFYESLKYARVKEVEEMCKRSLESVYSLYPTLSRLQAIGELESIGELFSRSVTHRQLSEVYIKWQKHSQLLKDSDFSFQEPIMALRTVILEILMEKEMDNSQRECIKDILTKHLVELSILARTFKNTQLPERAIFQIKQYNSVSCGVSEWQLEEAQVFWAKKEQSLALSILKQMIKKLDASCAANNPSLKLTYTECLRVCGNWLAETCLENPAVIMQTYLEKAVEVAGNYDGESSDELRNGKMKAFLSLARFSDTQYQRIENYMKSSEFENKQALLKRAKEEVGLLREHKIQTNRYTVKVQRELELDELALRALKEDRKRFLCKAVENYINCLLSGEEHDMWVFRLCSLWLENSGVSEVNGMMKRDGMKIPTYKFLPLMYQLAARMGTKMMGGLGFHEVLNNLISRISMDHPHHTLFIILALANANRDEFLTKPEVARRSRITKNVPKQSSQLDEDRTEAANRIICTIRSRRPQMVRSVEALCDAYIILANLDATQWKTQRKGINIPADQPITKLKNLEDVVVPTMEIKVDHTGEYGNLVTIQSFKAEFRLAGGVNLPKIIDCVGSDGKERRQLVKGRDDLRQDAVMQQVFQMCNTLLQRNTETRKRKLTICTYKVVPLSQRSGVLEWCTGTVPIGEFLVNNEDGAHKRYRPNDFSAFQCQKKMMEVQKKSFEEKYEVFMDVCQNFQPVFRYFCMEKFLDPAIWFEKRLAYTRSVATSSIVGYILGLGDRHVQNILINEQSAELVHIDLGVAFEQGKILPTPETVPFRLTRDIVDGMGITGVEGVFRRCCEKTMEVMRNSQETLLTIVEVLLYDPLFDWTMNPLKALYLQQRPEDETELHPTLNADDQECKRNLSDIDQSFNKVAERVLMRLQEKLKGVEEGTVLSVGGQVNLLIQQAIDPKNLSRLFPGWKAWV
Kind of assay: Assay a): ATM cellular potency (pATM Ser1981 in irradiated HT29 cells). The class given is cell-based. Conditions: HT29 cells, X-ray irradiation, pATM Ser1981; Table 2; read-out: Assay a) ATM Cell IC50. On the procedure: Most ATM molecules in the cell are rapidly phosphorylated on this site after doses of radiation as low as 0.5 Gy, and binding of a phosphospecific antibody is detectable after the introduction of only a few DNA double-strand breaks in the cell.
The rationale of the p ATM assay is to identify inhibitors of ATM in cells. HT29 cells are incubated with test compounds for 1 hr prior to X-ray-irradiation. 1 h later the cells are fixed and stained for p ATM (Ser1981). The fluorescence is read on the arrayscan imaging platform.
The following morning compounds of Formula (I) in 100% DMSO were added to assay plates by acoustic dispensing. After 1 h incubation at 37° C. and 5% CO2, plates (up to 6 at a time) were irradiated using the X-RAD 320 instrument (PXi) with equivalent to ˜600cGy. Plates were returned to the incubator for a further 1 h. […] Then 20 μl of 0.1% Triton X100 in PBS was added and incubated for 20 minutes at r.t., to permeabalise cells. Then the plates were washed once with […] PBS, using a Biotek EL405 plate washer.
After 1 h incubation at r.t., the plates were washed three times with 50 μl/well PBS, using a Biotek EL405 plate washer, and plates were sealed and kept in PBS at 4° C. until read. Plates were read using an ArrayScan VTI instrument, using an XF53 filter with 10× objective.

Regarding `CC(C)n1c(=O)n(C)c2cnc3ccc(-c4ccc(OCCCN(C)C)cc4)cc3c21` [Example 1, 8-[4-[3-(Dimethylamino)propoxy]phenyl]-1-isopropyl-3-methyl-imidazo[4,5-c]quinolin-2-one], in assay [1], the IC50 was over 30000 nM.

Regarding `CO[C@@H]1CCC[C@H](n2c(=O)n(C)c3cnc4ccc(-c5ccc(OCCCN(C)C)cc5)cc4c32)C1` (relative stereo) [Example 32, 8-[4-[3-(dimethylamino)propoxy]phenyl]-1-[cis-3-methoxycyclohexyl]-3-methyl-imidazo[4,5-c]quinolin-2-one], the IC50 in assay [2] was 2.37 nM; in assay [1], over 30000 nM.

As to `CN(C)CCCOc1ccc(-c2cc3c(cc2F)ncc2c3n([C@H]3CCCOC3)c(=O)n2C)cc1` [Example 10, 8-[4-[3-(dimethylamino)propoxy]phenyl]-7-fluoro-3-methyl-1-[(3S)-tetrahydropyran-3-yl]imidazo[4,5-c]quinolin-2-one], the IC50 in assay [2] is 3.92 nM; in assay [1] it was over 30000 nM.

Regarding `Cn1c(=O)n([C@@H]2CCCOC2)c2c3cc(-c4ccc(OCCCN5CCCC5)cc4)ccc3ncc21` [Example 16, 3-methyl-8-[4-(3-pyrrolidin-1-ylpropoxy)phenyl]-1-[(3R)-tetrahydropyran-3-yl]imidazo[4,5-c]quinolin-2-one], the IC50 is 0.797 nM in assay [2] and over 26000 nM in assay [1].

For the compound `CO[C@H]1CCC[C@H](n2c(=O)n(C)c3cnc4ccc(-c5ccc(OCCCN(C)C)cc5)cc4c32)C1` (single isomer, unassigned) [Example 29, 8-[4-[3-(dimethylamino)propoxy]phenyl]-1-[trans-3-methoxycyclohexyl]-3-methyl-imidazo[4,5-c]quinolin-2-one], the IC50 in assay [2] is 1.64 nM; in assay [1], 12800 nM.

In the case of `CO[C@H]1CCC[C@H](n2c(=O)n(C)c3cnc4ccc(-c5ccc(OCCCN(C)C)cc5)cc4c32)C1` (single isomer, unassigned) [Example 28, 8-[4-[3-(dimethylamino)propoxy]phenyl]-1-[trans-3-methoxycyclohexyl]-3-methyl-imidazo[4,5-c]quinolin-2-one], the IC50 is 0.285 nM in assay [2] and 11300 nM in assay [1].

Regarding `CC(C)n1c(=O)n(C)c2cnc3ccc(-c4ccc(OCCCN5CCCC5)cc4)cc3c21` [Example 2, 1-isopropyl-3-methyl-8-[4-(3-pyrrolidin-1-ylpropoxy)phenyl]imidazo[4,5-c]quinolin-2-one], the IC50 in assay [2] was 0.984 nM; in assay [1], over 30000 nM.

As for `CO[C@@H]1CCC[C@H](n2c(=O)n(C)c3cnc4ccc(-c5ccc(OCCCN6CCCC6)cc5)cc4c32)C1` (relative stereo) [Example 38, 1-[cis-3-methoxycyclohexyl]-3-methyl-8-[4-(3-pyrrolidin-1-ylpropoxy)phenyl]imidazo[4,5-c]quinolin-2-one], the IC50 in assay [2] worked out at 2.29 nM; in assay [1] it was 19200 nM.

Turning to `CO[C@@H]1CC[C@@H](n2c(=O)n(C)c3cnc4cc(F)c(-c5ccc(OCCCN(C)C)cc5)cc4c32)C1` (single isomer, unassigned) [Example 14, 8-[4-[3-(dimethylamino)propoxy]phenyl]-7-fluoro-1-[trans-3-methoxycyclopentyl]-3-methyl-imidazo[4,5-c]quinolin-2-one], the IC50 is 1.37 nM in assay [2] and over 29400 nM in assay [1].

Take `CO[C@H]1CC[C@H](n2c(=O)n(C)c3cnc4ccc(-c5ccc(OCCCN6CCCC6)cc5)cc4c32)CC1` [Example 22, 1-(trans-4-methoxycyclohexyl)-3-methyl-8-[4-(3-pyrrolidin-1-ylpropoxy)phenyl]imidazo[4,5-c]quinolin-2-one]: the IC50 is 0.458 nM in assay [2] and over 10000 nM in assay [1].

`CO[C@H]1CC[C@H](n2c(=O)n(C)c3cnc4ccc(-c5ccc(OCCCN6CCCCC6)cc5)cc4c32)C1` [Example 40, 1-[(1S,3S)-3-methoxycyclopentyl]-3-methyl-8-[4-[3-(1-piperidyl)propoxy]phenyl]imidazo[4,5-c]quinolin-2-one]: the IC50 in assay [2] amounted to 0.349 nM.

With `CO[C@@H]1CC[C@H](n2c(=O)n(C)c3cnc4cc(F)c(-c5ccc(OCCCN(C)C)cc5)cc4c32)C1` (single isomer, unassigned) [Example 36, 8-[4-[3-(dimethylamino)propoxy]phenyl]-7-fluoro-1-[cis-3-methoxycyclopentyl]-3-methyl-imidazo[4,5-c]quinolin-2-one], the IC50 is 5.77 nM in assay [2] and over 30000 nM in assay [1].

Consider `CO[C@H]1CCC[C@H](n2c(=O)n(C)c3cnc4ccc(-c5ccc(OCCCN6CCCC6)cc5)cc4c32)C1` (single isomer, unassigned) [Example 31, 1-[trans-3-methoxycyclohexyl]-3-methyl-8-[4-(3-pyrrolidin-1-ylpropoxy)phenyl]imidazo[4,5-c]quinolin-2-one], for which the figures for the IC50 in assay [2] and in assay [1] were 0.706 nM and 10900 nM, respectively.

For the compound `CO[C@H]1CC[C@H](n2c(=O)n(C)c3cnc4cc(F)c(-c5ccc(OCCCN(C)C)cc5)cc4c32)C1` (single isomer, unassigned) [Example 13, 8-[4-[3-(dimethylamino)propoxy]phenyl]-7-fluoro-1-[trans-3-methoxycyclopentyl]-3-methyl-imidazo[4,5-c]quinolin-2-one], the IC50 in assay [2] was 1.63 nM; in assay [1], over 30000 nM.

In the case of `CO[C@H]1CC[C@H](n2c(=O)n(C)c3cnc4ccc(-c5ccc(OCCCN(C)C)cc5)cc4c32)CC1` [Example 26, 8-[4-[3-(dimethylamino)propoxy]phenyl]-1-(trans-4-methoxycyclohexyl)-3-methyl-imidazo[4,5-c]quinolin-2-one], the figures for the IC50 in assay [2] and in assay [1] were 0.467 nM and over 30000 nM, respectively.

As for `CC(C)n1c(=O)n(C)c2cnc3ccc(-c4ccc(OCCCN5CCC5)cc4)cc3c21` [Example 3, 8-[4-[3-(azetidin-1-yl)propoxy]phenyl]-1-isopropyl-3-methyl-imidazo[4,5-c]quinolin-2-one], the IC50 in assay [2] is 0.173 nM; in assay [1] it was over 30000 nM.

Regarding `CO[C@H]1CC[C@@H](n2c(=O)n(C)c3cnc4ccc(-c5ccc(OCCCN6CCCC6)cc5)cc4c32)CC1` [Example 27, 1-(cis-4-methoxycyclohexyl)-3-methyl-8-[4-(3-pyrrolidin-1-ylpropoxy)phenyl]imidazo[4,5-c]quinolin-2-one], the IC50 was 0.492 nM in assay [2] and over 18500 nM in assay [1].

Regarding `CO[C@H]1C[C@@H](n2c(=O)n(C)c3cnc4ccc(-c5ccc(OCCCN6CCCC6)cc5)cc4c32)C1` [Example 41, 1-(cis-3-methoxycyclobutyl)-3-methyl-8-[4-(3-pyrrolidin-1-ylpropoxy)phenyl]imidazo[4,5-c]quinolin-2-one], the IC50 in assay [2] is 0.23 nM; in assay [1], over 28800 nM.

Turning to `Cn1c(=O)n(C2CCOCC2)c2c3cc(-c4ccc(OCCCN5CCCC5)cc4)c(F)cc3ncc21` [Example 46, 7-fluoro-3-methyl-8-[4-(3-pyrrolidin-1-ylpropoxy)phenyl]-1-tetrahydropyran-4-yl-imidazo[4,5-c]quinolin-2-one], the 50% inhibitory concentration (IC50) in assay [2] was found to be 2 nM; in assay [1], 16800 nM.
